Results on one compound are retold here after patent US20220387358A1, “CERAMIDE ANALOG SACLAC MODULATES SPHINGOLIPID LEVELS AND MCL-1 SPLICING TO INDUCE APOPTOSIS IN ACUTE MYELOID LEUKEMIA” (University of Virginia Patent Foundation, priority 2019, published 2022).

One test concerns sphingosine in the liver. Briefly: Sphingosine in the liver after SACLAC administration. The test is classed as in vivo, Swiss Webster mice.
Another test concerns 30 human AML cell lines. Briefly: Cell viability MTS assay, panel of cell lines. The test is classed as cell-based. The following applies: 24 and 48-hour time points. The procedure:
(§1) For cell viability, cell lines were plated at 2.5×10^4 cells per well in a 96-well plate and treated with […] or DMSO vehicle (0.4% of total volume) for the indicated time points and doses. At the experiment end point, 3-(4,5-Dimethylthiazol-2-yl)-5-(3-carboxymethoxyphenyl)-2-(4-sulfophenyl)-2H-tetrazolium (MTS) Cell Proliferation Colorimetric Assay Kit (# K300-5000, BioVision, Inc., Milpitas, Calif., United States of America) reagent was added and incubated for 2 hours. Conversion of MTS to formazan product was measured by absorbance at 490 nm using a BioTek Cytation 3 plate reader (BioTeck, Winooski, Vt., United States of America). Absorbance was normalized to DMSO control, which was defined as 100% viability. Due to limited cell numbers, patient samples and normal samples were plated at 5×10^3 cells per well in a 384-well plate with […] or DMSO control for the indicated time points and doses. At the experiment end point, a luminescent reagent sold under the tradename [sequence]-GLOTM (#G7572, Promega Corporation, Madison, Wis., United States of America) was added. After 15 minutes, luminescence was read on a BioTek Cytation 3 plate reader (BioTek, Winooski, Vt., United States of America). Absorbance was normalized to DMSO control, which was defined as 100% viability.
In general terms: Tetrazolium assays rely on reduction of a dye to a coloured formazan, in cell work by metabolically active cells.

Test [1] has as its system MCL-1S transcript in OCI-AML2 cells. Description: RT-qPCR of MCL-1S transcript. The test is classed as cell-based, human. The following applies: 5 μM SACLAC; 6 hours. As for the experimental part: Cells were seeded at 2.5×10^5 cells per ml in 6-well plates and treated with DMSO or SACLAC for six hours. Cells were harvested and resuspended in TRIzol reagent (#15596026, Invitrogen, Carlsbad, Calif., United States of America). RNA was isolated using Direct-zol RNA Miniprep Plus (#R2072, Zymo Research, Irvine, Calif., United States of America) according to the manufacturer's protocol. RNA was quantified using the Take3 microplate and the pre-programmed RNA quantification protocol on the Gen5 software for the Cytation 3 plate reader (BioTek, Winooski, Vt., United States of America). DNase treatment and reverse transcription were done using the iScript gDNA Clear cDNA Synthesis Kit (#1725035, Bio-Rad Laboratories, Hercules, Calif., United States of America) in accordance with the manufacturer's protocol. The qPCR reaction contained iTaq Universal SYBR Green (#1725122, Bio-Rad Laboratories, Hercules, Calif., United States of America), 140 ng cDNA and primers specific for HPRT (#100-25636, Bio-Rad Laboratories, Hercules, Calif., United States of America), B2M (#100-25636, Bio-Rad Laboratories, Hercules, Calif., United States of America) and MCL-1S (Eurofins (Luxembourg); forward, 5′-[…]-3′ (SEQ ID NO: 1) and reverse, 5′-[…]-3′ (SEQ ID NO: 2)) (38). This primer pair specifically amplifies Mcl-1 transcript variant 2 (MCL-1S) according to BLAST analysis. […]
In general terms: Real-time PCR tracks product formation cycle by cycle.

For another test, the system named is THP-1. Description: Cell viability MTS assay. The test is classed as cell-based. Particulars: Homo sapiens, 24-hour treatment. As for the experimental part:
as §1

Another test concerns HL-60/VCR. Description: Cell viability MTS assay. The test is classed as cell-based. Particulars: Homo sapiens, HL60/VCR; 24-hour treatment. As for the experimental part:
as §1

For another test, the system named is OCI-AML2. Description: Cell viability MTS assay. The test is classed as cell-based. The following applies: Homo sapiens, 24-hour treatment. As for the experimental part:
as §1

In test [2] the test system is THP-1, HL60-VCR and KG1a cell lines. Briefly: Western blot of SF3B1 and Mcl-1S/L in further cell lines. The test is classed as cell-based, human. Particulars: 20 μM SACLAC; 48 hours; all three cell lines. As for the experimental part: Cells were plated at 2.5×10^5 cells per ml in 6-well plates and treated with drug, vehicle or siRNA at the indicated doses and time points. Cells were harvested, washed with PBS and lysed prior to preparation of protein extracts for western blotting.
More particularly, cells were lysed with RIPA buffer (#R0278, Sigma, St. Louis, Mo., United States of America) containing phosphatase inhibitor cocktails 2 and 3 (Sigma #P5726, #P0044) and protease inhibitor cocktail (#P8340, Sigma, St. Louis, Mo., United States of America). Protein was quantified using a bicinchoninic acid (BCA) protein assay kit (#23225, Pierce, Waltham, Mass., United States of America). Samples were resolved on a Bolt 4-12% SDS-PAGE gel (#NW00082, ThermoFisher Scientific, Waltham, Mass., United States of America) and transferred to PVDF membrane (#170-4274, Bio-Rad Laboratories, Hercules, Calif., United States of America). Antibodies were obtained from Cell Signaling Technology (Danvers, Mass., United States of America) unless indicated otherwise. […] Quantification was done using Bio-Rad ImageLab 6.0.1 software (Bio-Rad Laboratories, Hercules, Calif., United States of America). For quantification, bands were normalized to β-actin as a loading control.
For orientation: In western blotting, separated proteins are transferred to a membrane and probed.

The structures appear in SMILES notation. Read-outs that look alike come from different tables or passages of the source. Where only a bound is given, the exact number is not on record here.

Usually EC50 stands for the concentration that produces a half-maximal response. As to `CCCCCCCCCCCCCCC[C@@H](O)[C@H](CO)NC(=O)CCl` [SACLAC, N-[(2S,3R)-1,3-dihydroxyoctadecan-2-yl]2-chloroacetamide], in the test with sphingosine in the liver, the “time that liver sphingosine levels were reduced after treatment” value was “at least 6 hours”. Also, the EC50 is 3.2 µM in the test on 30 human AML cell lines (read-out: average EC50 across 30 human AML cell lines); approximately 3 µM in the test on 30 human AML cell lines (Homo sapiens, 48 h, read-out: average EC50 across 30 human AML cell lines); less than 5 µM in the test on 30 human AML cell lines (Homo sapiens, 48 h, read-out: EC50 of 25 of 30 cell lines, 25 of 30 cell lines); 2.6 µM in the test on THP-1; 3.3 µM in the test with HL-60/VCR; 1.8 µM in the test with OCI-AML2. For the same compound, in test [1], the MCL-1S transcript level result is given as “Increased”. For the same compound, in test [2], the SF3B1 levels result was “reduced”. In addition, in test [2], the “ratio of Mcl-1S/L” value is “increased”.
